In patent publication US11998610B2, “Conjugates and methods of using the same” (Flagship Pioneering Innovations V, Inc., priority 2018, dated 2024):
Non-standard residues stand in square brackets, D forms with d. Residues, ends and D or L forms follow the SMILES beside them. *: point of attachment. Myristoyl = CCCCCCCCCCCCCC(=O)*; PhAc = O=C(Cc1ccccc1)*

How the values were obtained:
[1] = In vitro Colonic Material Stability Assay; type: in vitro ADME; conditions: for Assay 3 (% Remaining at 24 h): colonic material slurry, anaerobic, 1 or 10 μM
Method: Assay 3 In vitro Colonic Material Stability Assay. This assay was used to assess the stability of an acylated active agent in a large intestine. All experiments were performed in an anaerobic chamber containing 90% nitrogen, 5% hydrogen and 5% carbon dioxide. Colonic material was resuspended as a slurry (15% w/v final concentration) in pre-reduced, anaerobically sterilized dilution blanks (Anaerobe Systems AS-908). The colonic material was then inoculated into 96 well plates containing YCFAC media (Anaerobe Systems AS-680) or other suitable media (6.7 μL slurry into 1 mL total media). Compounds or groups of compounds were added to each individual well to reach a final analyte concentration of 1 or 10 μM, and the material was mixed by pipetting. Sample was removed after set timepoints (0, 120, 240, 480, 1440, 2880 minutes after initiation of the assay), quenched with acetonitrile containing internal standard, and analyzed by LC/MS.

E. coli BL21(DE3) = experiment: Cell-based assay with ClbP with LCMS, ClbP negative strain; conditions: 10 μM compound, 37° C., 20 h
Method: (§1) This example is representative of the methods described in Example 97. ClbP was tested for its ability to activate compounds. […] Each of these three strains was struck out onto an appropriate solid media such as LB agar or BHI agar. The bacteria were then grown aerobically overnight at 37° C.
(§2) A single colony was isolated from the plate and inoculated into 10 mL LB. The liquid cultures were grown overnight aerobically at 37° C. with rocking on a nutator.
(§3) The saturated E. coli cultures were transferred into a biosafety cabinet. 5 μL of each culture was inoculated into fresh LB broth (200 μL total, 1:40 (v/v) dilution of the overnight culture), and the tested compound was added to a final concentration of 10 μM. To establish the native stability of the compound in media alone, the compound was also added to uninoculated media at a final concentration of 10 μM. Each compound was tested in duplicate with each strain or the media-alone incubation. The plate was sealed and incubated aerobically on a nutator at 37° C. for 20 h.
(§4) After 20 h, the reactions were stopped by addition of 200 μL acetonitrile. The contents of each well were mixed, and then the plate was centrifuged (4,000 rpm, 10 min). The plate was diluted serially to a final dilution of 1:100 first with Acetonitrile (10× dilution) and then with (4:1) Mobile Phase A-20 mM ammonium formate+water:Mobile Phase B-Isopropanol:Methanol:Water (4:4:2)+20 mM ammonium formate (10× dilution).
(§5) The amount of each remaining parent compound in each incubation was quantified by LC-MS analysis, with multiple-reaction monitoring targeting transitions specific to each parent compound.
(§6) The amount of compound present in the media-alone condition was normalized to 100%. The amount of parent compound present in the reaction with the ClbP-encoding E. coli (E. coli CFT073 ATCC 700928 and/or E. coli Nissle 1917) was compared to the amount present in the media-alone and expressed as a percent. Likewise, the amount of parent compound present in the reaction with the negative control E. coli BL21(DE3) was compared to the amount present in the media-alone and expressed as a percent.
(§7) In an ideal case, the amount of residual starting material in the reaction(s) with ClbP-encoding E. coli was <25% of the amount in the E. coli BL21(DE3) and media-alone conditions. In an acceptable case, the amount of residual starting material in the reaction(s) with ClbP-encoding E. coli was 25-75% of the amount in the E. coli BL21(DE3) and media-alone conditions. In a non-preferred case, the amount of residual starting material in the reaction(s) with ClbP-encoding E. coli was >75% of the amount in the E. coli BL21(DE3) and media-alone conditions.

[2] = Stability of conjugates in Simulated Gastric Fluid (SGF); type: in vitro ADME; conditions: simulated gastric fluid pH 1.6 with pepsin, 1 μM, 37° C.
Method: Assay 1. Stability of conjugates in Simulated Gastric Fluid (SGF). This assay was used to assess the stability of a conjugate in a stomach. Medium was prepared by dissolving 2 g of sodium chloride in 0.6 L in ultrapure water (MilliQ®, Millipore Sigma, Darmstadt, Germany). The pH was adjusted to 1.6 with 1N hydrochloric acid, and the volume was then adjusted to 1 L with purified water. 60 mg FaSSIF powder (Biorelevant™, London, UK) were dissolved in 500 mL buffer (above). Pepsin was added (0.1 mg/mL) (Millipore Sigma, Darmstadt, Germany), and the solution was stirred. The resulting SGF media were used fresh for each experiment. Test compounds were dissolved in DMSO stock to 1 mM. An aliquot of the DMSO stock solution was removed and diluted in the SGF Media in 15 mL falcon tubes to generate a total compound concentration of 1 μM. A 1 mL aliquot was immediately removed and diluted once with 1 volume of acetonitrile for T0 timepoint. The mixture was sealed and mixed at 37° C. in an incubator. Aliquots (1 mL) were removed at regular intervals and immediately quenched by the addition of 1 volume of acetonitrile. The resulting samples were analyzed by LC/MS to determine degradation rates in SGF.

[3] = test system: E. coli CFT073 ATCC 700928 and/or E. coli Nissle 1917; experiment: Cell-based assay with ClbP with LCMS, ClbP positive strain; conditions: ClbP-encoding E. coli, 10 μM compound, 37° C., 20 h
Method: as §1, §2, §3, §4, §5, §6, §7

[4] = Stability of conjugates in Simulated Intestinal Fluid (SIF); type: in vitro ADME; conditions: simulated intestinal fluid pH 6.7 with pancreatin, 1 μM, 37° C.
Method: Assay 2. Stability of conjugates in Simulated Intestinal Fluid (SIF). This assay was used to assess the stability of a conjugate in a small intestine. Phosphate buffer was prepared by dissolving 0.42 g of sodium hydroxide pellets and 3.95 g of monobasic sodium phosphate monohydrate and 6.19 g of sodium chloride in ultrapure water (MilliQ®, Millipore Sigma, Darmstadt, Germany). The pH was adjusted to 6.7 using aq. HCl and aq. NaOH, as necessary, and the solution was diluted with ultrapure water to produce 1 L of the pH 6.7 buffer. 112 mg FaSSIF powder (Biorelevant™, London, UK) was dissolved in 50 mL of the pH 6.7 buffer. 2 to 3 mL of the resulting solution were then added to 500 mg pancreatin (Millipore Sigma, Darmstadt, Germany). The resulting mixture was agitated by finger tapping the vessel containing the mixture until milky suspension formed. At this time, the remainder of the 50 mL FaSSiF/pH 6.7 buffer solution was added. The resulting suspension was flipped upside down 10 times to produce SIF, which was used fresh. Test compounds were dissolved in DMSO stock to 1 mM. An aliquot of the DMSO stock solution was removed and diluted in the SIF media in 15 mL falcon tubes to produce a mixture with a tested compound concentration of 1 μM. A 1 mL aliquot was immediately removed and diluted once with 1 volume of acetonitrile for T0 timepoint. The mixture was sealed and agitated at 37° C. in an incubator. Aliquots (1 mL) were removed at regular intervals and immediately quenched by the addition of 1 volume of acetonitrile. The resulting samples were analyzed by LC/MS to determine degradation rates

| Structure (SMILES) | Assay 3 (% Remaining at 24 h) [1] | % Remaining in ClbP Negative Relative to Media-Only (E. coli BL21(DE3)) | Assay 1 (SGF) (% Remaining @ 1 hours) [2] | % Remaining in ClbP Positve Relative to Media-Only [3] | Assay 2 (SIF) (% @ Remaining 4 hours) [4] | Selective delivery to the colon (conclusion from Table 2) ([1]; from SGF, SIF and colonic material stability) |
| --- | --- | --- | --- | --- | --- | --- |
| COCCOCCC(=O)N[C@H](CC(N)=O)C(=O)N[C@@H](C)C(=O)OC [Example 61, Methyl (3-(2-methoxyethoxy)propanoyl)-D-asparaginyl-L-alaninate] | C (>75% of the tested compound remaining) | − (>75% compound remaining in the 20 μM WT ClbP reaction relative to the no-enzyme control) | C (>75% of the tested compound remaining) | + (between 25-75% compound remaining in the 20 μM WT ClbP reaction relative to the no-enzyme control) | B (25-75% of the tested compound remaining) |  |
| COC(=O)[C@H](C)NC(=O)[C@@H](CC(N)=O)NC(=O)C(C)c1ccc(CC(C)C)cc1 (stereo partly drawn) [Example 17, Methyl (2-(4-isobutylphenyl)propanoyl)-D-asparaginyl-L-alaninate] | C (>75% of the tested compound remaining) | + (between 25-75% compound remaining in the 20 μM WT ClbP reaction relative to the no-enzyme control) | C (>75% of the tested compound remaining) | + (between 25-75% compound remaining in the 20 μM WT ClbP reaction relative to the no-enzyme control) | A (<25% of the tested compound remaining) |  |
| COC(=O)[C@H](C)NC(=O)[C@@H](CC(N)=O)NC(=O)Cc1ccccc1 [Example 14, Methyl (2-phenylacetyl)-D-asparaginyl-L-alaninate] (PhAc-[dN]-Ala-OMe) | C (>75% of the tested compound remaining) | − (>75% compound remaining in the 20 μM WT ClbP reaction relative to the no-enzyme control) | C (>75% of the tested compound remaining) | + (between 25-75% compound remaining in the 20 μM WT ClbP reaction relative to the no-enzyme control) | A (<25% of the tested compound remaining) |  |
| CCCCCCCC(=O)N[C@H](CC(N)=O)C(=O)N[C@@H](C)CCC(=O)O[C@]1(CC)C(=O)OCc2c1cc1n(c2=O)Cc2c-1nc1ccc(O)cc1c2CC [Example 49, (S)-4,11-diethyl-9-hydroxy-3,14-dioxo-3,4,12,14-tetrahydro-1H-pyrano[3′,4′:6,7]indolizino[1,2-b]quinolin-4-yl (S)-4-((R)-4-amino-2-octanamido-4-oxobutanamido)pentanoate] | C (>75% of the tested compound remaining) | + (between 25-75% compound remaining in the 20 μM WT ClbP reaction relative to the no-enzyme control) | C (>75% of the tested compound remaining) | ++ (<25% compound remaining in the 20 μM WT ClbP reaction relative to the control) | C (>75% of the tested compound remaining) |  |
| CCCCCCCCCCCCCC(=O)N[C@H](CC(N)=O)C(=O)N[C@H](C(=O)OC)C(C)C [Example 3, Methyl tetradecanoyl-D-asparaginyl-L-valinate] (Myristoyl-[dN]-Val-OMe) | B (25-75% of the tested compound remaining) | + (between 25-75% compound remaining in the 20 μM WT ClbP reaction relative to the no-enzyme control) | C (>75% of the tested compound remaining) | + (between 25-75% compound remaining in the 20 μM WT ClbP reaction relative to the no-enzyme control) | C (>75% of the tested compound remaining) |  |
| CCCCCCCC(=O)N[C@H](CC(N)=O)C(=O)N[C@@H](C)CCC(=O)Oc1ccc(Br)cc1 [Example 47, 4-bromophenyl (S)-4-((R)-4-amino-2-octanamido-4-oxobutanamido)pentanoate] | A (<25% of the tested compound remaining) | − (>75% compound remaining in the 20 μM WT ClbP reaction relative to the no-enzyme control) | C (>75% of the tested compound remaining) | − (>75% compound remaining in the 20 μM WT ClbP reaction relative to the no-enzyme control) | A (<25% of the tested compound remaining) |  |
| CCCCCCCC(=O)N[C@H](CC(N)=O)C(=O)NCCCC(=O)OC [Example 43, Methyl (R)-4-(4-amino-2-octanamido-4-oxobutanamido)butanoate] | B (25-75% of the tested compound remaining) | − (>75% compound remaining in the 20 μM WT ClbP reaction relative to the no-enzyme control) | B (25-75% of the tested compound remaining) | − (>75% compound remaining in the 20 μM WT ClbP reaction relative to the no-enzyme control) | B (25-75% of the tested compound remaining) |  |
| CCCCCCCCCCCCCC(=O)N[C@H](CC(N)=O)C(=O)N[C@@H](C)CCC(=O)Oc1ccccc1 [Example 66, phenyl (S)-4-((R)-4-amino-4-oxo-2-tetradecanamidobutanamido)pentanoate] | A (<25% of the tested compound remaining) | ++ (<25% compound remaining in the 20 μM WT ClbP reaction relative to the control) | C (>75% of the tested compound remaining) | + (between 25-75% compound remaining in the 20 μM WT ClbP reaction relative to the no-enzyme control) | B (25-75% of the tested compound remaining) | can be selectively delivered to the colon |
